Patent publication US4350676A, “Ophthalmic use of carboxyfluorescein” (priority 1981, dated 1982)
Where two headings read alike, the source gives them in different places.

Columns and labels:
[1] = cited from earlier work
[2] = Dialyzable (unbound) fraction of dye in human plasma; type: in vitro ADME; details: human plasma, 37° C., read-out: Dialyzable fraction (mean ± S.E.M.)
Protocol: (§1) Measurement of unbound dye in plasma: Plasma was separated by centrifugation from the heparinized blood obtained from rats injected with sodium fluorescein or carboxyfluorescein in the intraocular dye distribution study. The plasma was dialyzed for 24 hours at 37° C. against 0.1 M phosphate buffer at pH 7.4 using cellulose dialysis tubing with a 3500 molecular weight cut-off. Dye concentration was measured in the dialysate spectrofluorophotometrically and from this value calculated the unbound plasma dye concentration.
(§2) To study the fraction of unbound dye in human plasma, there was added small aliquots of carboxyfluorescein and sodium fluorescein solutions to plasma separated from heparinized human blood so that the final dye concentration in the plasma was between 10^-3 M and 10^-6 M. The plasma/dye mixture was incubated for 2 hours at 37° C. Then using the dialysis and measuring procedures described above, the ratio of unbound dye to total dye in the plasma mixture was calculated.

physchem = details: for logD at 10 µM / logD at 1000 µM / Partition ratio octanol/buffer: octanol/0.1 m phosphate buffer
Protocol: Octanol/buffer partition ratios: The ratio of concentrations of a given solute in equilibrium distribution between two immiscible solvents is termed the partition coefficient. This expression properly refers only to the distribution of a single molecular species between the two phases. […] Total dye concentration in the two solvent phases was measured without correction for ionization or self-association and the recommended term, "partition ratio", is used to refer to these uncorrected distributions.
Carboxyfluorescein (Eastman Kodak Co., Rochester) or sodium fluorescein (Sigma Chemical Co., St. Louis) was dissolved at concentrations of 10^-3 M or 10^-5 M in octanol-saturated 0.1 M phosphate buffer at different pH values between 6.40 and 8.03. The aqueous dye solutions were equilibrated with equal volumes of buffer-saturated octanol by 100 inversions during 5 minutes, and the phases were separated by centrifugation. Dye concentrations were measured spectrofluorophotometrically at excitation and emmision wavelengths of 487 and 512 nm, respectively, with an Aminco-Bowman Ratio Spectrofluorophotometer.
Two methods were used to calculate partition ratios. In the first, the dye concentration in the aqueous phase was measured before (Cb) and after (Ca) partitioning, and the ratio was obtained from the equation:
P.R.=Coct/Caq=(Cb -Ca)/Ca,
where Coct and Caq are the dye concentration in the octanol and aqueous phases respectively after equilibration. In the second method, concentration in the octanol phase was determined by extracting the dye from octanol with an equal volume 0.1 N NaOH. […] Therefore, dye concentration in the first base extract was accepted as the concentration in the octanol phase and calculated the partition ratio from the equation: […]

cornea = details: topical; cited from earlier work
[3] = system: blood-ocular barriers (choroid and retina); type: in vivo, male Wistar rats; details: rat, iv
From the text: To determine whether a less membrane permeable dye than fluorescein has value as a probe of the structural and functional integrity of the blood-ocular barriers we have undertaken studies of carboxyfluorescein, a compound with the same fluorescence characteristics as fluorescein, but with lower lipid solubility at physiological pH (7). In particular, the lipid solubility of carboxyfluorescein was compared with fluorescein by measuring dye partitioning between octanol and aqueous buffer at different pH to determine solubility behavior relevant to the permeability of cell membranes in vivo. Studies were then made of the ocular distribution carboxyfluorescein in rats after intravenous injection using quantitative fluorescence microscopy; and compared to the results for fluorescein. The plasma binding of carboxyfluorescein was also studied and compared to fluorescein.
(§3) Intra-ocular dye distribution: Young male Wistar rats (180-250 g) under pentobarital anesthesia (50 mg/kg i.p.) were injected intravenously with carboxyfluorescein or fluorescein solutions (pH 7.4) at doses of 12.5, 62.5 and 125 mg/kg. One minute after dye injection, the eyes were removed and immediately frozen in isopentane cooled to -110° C. by a liquid nitrogen bath. Between 2 and 4 minutes after injection a blood sample from the abdominal aorta was drawn into a heparinized syringe for determination of the concentration of unbound dye in plasma. The frozen eyes were dried under vacuum at -35° C. and embedded in paraffin. After embedding the eyes were stored under vacuum at -20° C. to minimize the development of autofluorescence. Additional eyes from normal rats not injected with dye were processed and stored identically for measurement of tissue autofluorescence. Immediately prior to examination with the fluorescence microscope, sections were cut at a thickness of 12 microns, placed on glass slides, and mounted with xylene.
Fluorescence intensity in small areas of the tissue sections was measured with a 450 u fiber optic probe placed in the object plane of an ocular and connected to a photomultiplier tube. An amplified signal from the photomultiplier was recorded with a digital voltmeter. The illumination system consisted of a 50 W high pressure mercury light source and an epifluorescence condensor equipped with a 455-490 nm exciter filter, a 510 nm dichroic beam splitter, and a 520 nm barrier filter. All measurements were performed using a 63X oil objective (N.A. 1.4). With this magnification, an aperture in the object plane restricted the area of illumination to a circle, 24 microns in diameter. The fiber optic probe covered a specimen field, 6 microns in diameter, centered in the larger illuminated field.
Fluorescence intensity of four tissue layers was recorded in the posterior segment: the inner plexiform, outer nuclear, and photoreceptor outer segment layers of the retina, and the choriocapillaris. Each of these layers is of sufficient width so that the illuminated area encompassed a homogeneous field. Foci of intense fluorescence, such as dye filled retinal capillaries, within the illumination field but outside the detection area of the fiber optic probe, can increase the recorded signal by light scatter into the detection area. Fields containing such bright foci were avoided. Examination of the section, location of the area for measurement, and focusing of the image was accomplished under dim green illumination from a tungsten lamp. The illumination was then switched to the fluorescence system, and the maximum value of fluorescence intensity was recorded as voltage. Measurements were made at 12 sites in each layer to obtain the average fluorescence intensities for an individual eye. These values were then corrected for tissue autofluorescence by subtracting the average fluorescence intensity of each layer in eyes from animals not injected with dye. […]

[4] = system: active transport system in the anterior uvea; details: outward, from eye to blood; cited from earlier work
[5] = cited from earlier work; remark: listed apart in the source
[6] = Measurement of unbound dye in plasma of injected rats (dialysis); type: in vivo, male Wistar rats; details: rat; for Plasma unbound dye concentration: blood 2-4 min after injection
Protocol: as §3, §1

human plasma proteins = experiment: Dialyzable (unbound) fraction of dye in human plasma; type: in vitro ADME; details: for Dialyzable fraction (mean ± S.E.M.): human, plasma
Protocol: as §1, §2

rabbit eyes = system: rabbit eyes
Protocol: Carboxyfluorescein was prepared as a 1% solution in water, buffered to pH 7.4. Carboxyfluorescein was made into strip form, using strips of #1 filter paper, impregnated with carboxyfluorescein and allowed to dry. The carboxyfluorescein was applied to rabbit eyes both with the paper impregnated strip and also as a 1% topical drop.

O=C1OC2(c3ccc(O)cc3Oc3cc(O)ccc32)c2ccccc21 [fluorescein]
Partition coefficient octanol/artificial sea water [1]: 0.6
fraction unbound at 1000 µM ([2]; 10^-3 M): 0.3 ± 0.02
fraction unbound at 100 µM ([2]; 10^-4 M): 0.33 ± 0.03
fraction unbound at 10 µM ([2]; 10^-5 M): 0.33 ± 0.01
fraction unbound at 1 µM ([2]; 10^-6 M): 0.32 ± 0.02
logD at 10 µM (physchem; pH 6.42): 1.58
logD at 1000 µM (physchem; pH 6.42): 1.54
logD at 10 µM (physchem; pH 6.87): 0.69
logD at 1000 µM (physchem; pH 6.87): 0.708
logD at 10 µM (physchem; pH 7.38): -0.194
logD at 1000 µM (physchem; pH 7.38): -0.292
logD at 10 µM (physchem; pH 8.03): -1.52
logD at 1000 µM (physchem; pH 8.03): -1.42
pH at which partition ratio reaches 1.0 (physchem; octanol/buffer): 7.25
Corneal penetration and artificial aqueous flare (cornea): its ready penetration through the cornea into the aqueous humor creates an artificial aqueous flare
Fluorescence of iris epithelium ([3]; in vivo): brightly stains the cells of the ciliary and iris epithelium
Outer segment layer values relative to deeper retinal layers ([3]; in vivo): twice as high
Tissue relative fluorescence intensity, IPL (mean ± S.E.M.) ([3]; in vivo, 12.5 mg/kg): .021
Tissue relative fluorescence intensity, ONL (mean ± S.E.M.) ([3]; in vivo, 12.5 mg/kg): .011 ± .001
Tissue relative fluorescence intensity, choroid (mean ± S.E.M.) ([3]; in vivo, 12.5 mg/kg): .57 ± .03
Tissue relative fluorescence intensity, outer segments (mean ± S.E.M.) ([3]; in vivo, 12.5 mg/kg): .032 ± .003
Tissue relative fluorescence intensity, IPL (mean ± S.E.M.) ([3]; in vivo, 62.5 mg/kg): .086
Tissue relative fluorescence intensity, ONL (mean ± S.E.M.) ([3]; in vivo, 62.5 mg/kg): .076 ± .004
Tissue relative fluorescence intensity, choroid (mean ± S.E.M.) ([3]; in vivo, 62.5 mg/kg): 2.7 ± .2
Tissue relative fluorescence intensity, outer segments (mean ± S.E.M.) ([3]; in vivo, 62.5 mg/kg): .153 ± .008
Tissue relative fluorescence intensity, IPL (mean ± S.E.M.) ([3]; in vivo, 125 mg/kg): .150
Tissue relative fluorescence intensity, ONL (mean ± S.E.M.) ([3]; in vivo, 125 mg/kg): .196 ± .011
Tissue relative fluorescence intensity, choroid (mean ± S.E.M.) ([3]; in vivo, 125 mg/kg): 5.7 ± .5
Tissue relative fluorescence intensity, outer segments (mean ± S.E.M.) ([3]; in vivo, 125 mg/kg): .452 ± .021
Outer segment layer values relative to choroid ([3]; in vivo, 1 min): 6-8%
Substrate for active transport [4]: serves as a substrate for an active transport system in the anterior uvea
pKa, divalent/monovalent anion ([5]; dianion/monoanion): 6.7
pKa, monoanion/neutral molecule ([5]; second listed pKa): 4.4
pKa, neutral molecule/cation ([5]; third listed pKa): 2.2
Plasma unbound dye concentration ([6]; i.v. 12.5 mg/kg): .04 ± .03 mg/mL
Plasma unbound dye concentration ([6]; i.v. 62.5 mg/kg): .18 ± .01 mg/mL
Plasma unbound dye concentration ([6]; i.v. 125 mg/kg): .29 ± .01 mg/mL

carboxyfluorescein
Binding to human plasma proteins compared with fluorescein (human plasma proteins): consistently less bound to human plasma proteins than fluorescein
Dialyzable fraction (mean ± S.E.M.) (human plasma proteins; 1 µM): .46 ± .01
Dialyzable fraction (mean ± S.E.M.) (human plasma proteins; 10 µM): .51 ± .03
Dialyzable fraction (mean ± S.E.M.) (human plasma proteins; 100 µM): .50 ± .01
Dialyzable fraction (mean ± S.E.M.) (human plasma proteins; 1000 µM): .61 ± .02
Partition ratio octanol/buffer (physchem; 10 µM, pH 6.42): .037
Partition ratio octanol/buffer (physchem; 10 µM, pH 6.87): .0030
Partition ratio octanol/buffer (physchem; 10 µM, pH 7.38): .0007
Partition ratio octanol/buffer (physchem; 1000 µM, pH 6.42): .033
Partition ratio octanol/buffer (physchem; 1000 µM, pH 6.87): .0028
Partition ratio octanol/buffer (physchem; 1000 µM, pH 7.38): .0008
Partition ratio octanol/buffer (physchem; 1000 µM, pH 8.03): .00006
Partition ratio (physchem; octanol/phosphate buffer, pH 6.4): below 0.1
Fluorescence of iris stroma ([3]; in vivo): the intensity of fluorescence is less than that seen with fluorescein
Tissue relative fluorescence intensity, IPL (mean ± S.E.M.) ([3]; in vivo, 62.5 mg/kg): .001
Tissue relative fluorescence intensity, ONL (mean ± S.E.M.) ([3]; in vivo, 62.5 mg/kg): .002 ± .001
Tissue relative fluorescence intensity, choroid (mean ± S.E.M.) ([3]; in vivo, 62.5 mg/kg): 8.0 ± .4
Tissue relative fluorescence intensity, outer segments (mean ± S.E.M.) ([3]; in vivo, 62.5 mg/kg): .008 ± .001
Tissue relative fluorescence intensity, IPL (mean ± S.E.M.) ([3]; in vivo, 125 mg/kg): .002
Tissue relative fluorescence intensity, ONL (mean ± S.E.M.) ([3]; in vivo, 125 mg/kg): .003 ± .001
Tissue relative fluorescence intensity, choroid (mean ± S.E.M.) ([3]; in vivo, 125 mg/kg): 7.8 ± .8
Tissue relative fluorescence intensity, outer segments (mean ± S.E.M.) ([3]; in vivo, 125 mg/kg): .006 ± .003
Permeability of blood-ocular barriers to intravascular dye ([3]; not told): markedly less permeable to intravascular carboxyfluorescein than to fluorescein
Plasma unbound dye concentration compared with fluorescein ([6]; in vivo, iv): significantly higher than in animals injected with fluorescein
Persistence of stain (rabbit eyes; corneal abrasion, observation 30 to 45 minutes): persisted but lessened in intensity
Staining of corneal epithelial defect (rabbit eyes; experimental corneal abrasion): densely stained the corneal epithelial defect
Hyperemia or corneal changes (rabbit eyes; in vivo): no apparent hyperemia or corneal changes
Reaction / subjective discomfort (rabbit eyes; in vivo): did not react in a negative fashion
Visibility in tear film (rabbit eyes; topical, blue light): seen in the tear film
